# Test results reported in ChEMBL document CHEMBL5370599, “Discovery of a 53BP1 Small Molecule Antagonist Using a Focused DNA-Encoded Library Screen” (J Med Chem, 2023).
# Assays:
# TP53-binding protein 1 [1] = target: T1, TP53-binding protein 1 (Homo sapiens, UniProt Q12888); test: Displacement of Biotin-p53K381acK382me2 from N-terminal his6-tagged 53BP1 (1484 to 1603 residues) (unknown origin) expressed in Rosetta2 BL21 (DE3) pLysS competent cells by TR-FRET assay; assay type: single protein
# [2] = target: T2, Chromobox protein homolog 2 (Homo sapiens, UniProt Q14781); test: Displacement of Biotin-p53K381acK382me2 from CBX2 chromodomain (unknown origin) by TR-FRET assay
# T2 sequence (Q14781 whole entry): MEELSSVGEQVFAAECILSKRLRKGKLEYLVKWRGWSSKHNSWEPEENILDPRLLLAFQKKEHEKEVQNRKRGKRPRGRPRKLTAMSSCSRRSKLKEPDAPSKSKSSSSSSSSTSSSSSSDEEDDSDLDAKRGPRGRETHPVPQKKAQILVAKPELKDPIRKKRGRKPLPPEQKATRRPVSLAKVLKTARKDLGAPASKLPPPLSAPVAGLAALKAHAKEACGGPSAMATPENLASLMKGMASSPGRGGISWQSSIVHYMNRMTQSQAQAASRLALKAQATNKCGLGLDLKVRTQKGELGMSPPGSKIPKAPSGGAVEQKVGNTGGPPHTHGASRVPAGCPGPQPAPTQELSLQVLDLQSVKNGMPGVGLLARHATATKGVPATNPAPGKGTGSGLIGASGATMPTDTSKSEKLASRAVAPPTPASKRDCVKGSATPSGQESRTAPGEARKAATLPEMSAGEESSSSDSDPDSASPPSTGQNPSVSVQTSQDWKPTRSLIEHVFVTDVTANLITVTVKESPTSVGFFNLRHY
# TP53-binding protein 1 [3] = target: T1, TP53-binding protein 1; conditions: filed as antagonist
# Description: Binding affinity to N-terminal his6-tagged 53BP1 tandem tudor domain (1484 to 1603 residues) (unknown origin) expressed in Rosetta2 BL21 (DE3) pLysS competent cells assessed as change in enthalpy by differential scanning fluorimetry analysis
# PHD finger protein 19 = PHD finger protein 19 (Homo sapiens, UniProt Q5T6S3); test: Displacement of Biotin-p53K381acK382me2 from PHF19 (unknown origin) by TR-FRET assay
# [4] = target: T3, Chromodomain Y-like protein 2 (Homo sapiens, UniProt Q8N8U2); test: Displacement of Biotin-p53K381acK382me2 from CDYL2 (unknown origin) by TR-FRET assay
# T3 sequence (Q8N8U2 whole entry): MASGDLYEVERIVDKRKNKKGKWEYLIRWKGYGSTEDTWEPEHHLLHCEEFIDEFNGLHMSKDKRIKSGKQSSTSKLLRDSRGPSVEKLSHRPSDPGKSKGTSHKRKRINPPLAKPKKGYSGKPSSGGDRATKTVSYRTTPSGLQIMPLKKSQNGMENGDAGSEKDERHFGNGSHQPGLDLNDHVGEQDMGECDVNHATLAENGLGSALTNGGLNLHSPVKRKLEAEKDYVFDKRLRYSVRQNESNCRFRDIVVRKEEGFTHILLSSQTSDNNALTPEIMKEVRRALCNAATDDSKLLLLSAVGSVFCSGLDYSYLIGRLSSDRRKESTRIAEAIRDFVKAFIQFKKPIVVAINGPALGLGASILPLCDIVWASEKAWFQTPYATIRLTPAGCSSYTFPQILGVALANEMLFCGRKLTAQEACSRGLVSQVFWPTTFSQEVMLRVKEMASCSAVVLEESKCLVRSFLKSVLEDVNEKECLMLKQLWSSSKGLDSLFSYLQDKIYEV
# TP53-binding protein 1 [5] = target: T1, TP53-binding protein 1; test: Binding affinity to N-terminal his6-tagged 53BP1 (1484 to 1603 residues) (unknown origin) expressed in Rosetta2 BL21 (DE3) pLysS competent cells assessed as dissociation constant by SPR analysis
# [6] = Displacement of Biotin-p53K381acK382me2 from KDM7B (unknown origin) by TR-FRET assay; parameters: species or system Homo sapiens
# TP53-binding protein 1 [7] = target: T1, TP53-binding protein 1; test: Binding affinity to N-terminal his6-tagged 53BP1 tandem tudor domain (1484 to 1603 residues) (unknown origin) expressed in Rosetta2 BL21 (DE3) pLysS competent cells assessed as dissociation constant by ITC analysis
# [8] = Kinetic solubility of compound by CLND analysis; assay type: physicochemical
# [9] = target: Histone-lysine N-methyltransferase SETDB1 (Homo sapiens, UniProt Q15047); test: Displacement of Biotin-p53K381acK382me2 from SETDB1 tandem tudor domain (unknown origin) by TR-FRET assay
# HEK-293T [10] = test: Cytotoxicity against HEK293T cells assessed as reduction in cell viability measured upto 200 uM by celltiterglo 2.0 assay; assay type: toxicity, cell-based; conditions: human
# TP53-binding protein 1 [11] = target: T1, TP53-binding protein 1; test: Antagonist activity at nanoluc-tagged 53BP1 tandem tudor domain (unknown origin) transfected in HEK293T cells assessed as inhibition of 53BP1-H4 peptide interaction by nanoBRET assay; assay type: cell-based
# [12] = target: T4, E3 ubiquitin-protein ligase UHRF1 (Homo sapiens, UniProt Q96T88); test: Displacement of Biotin-p53K381acK382me2 from UHRF1 tandem tudor domain (unknown origin) by TR-FRET assay
# T4 sequence (Q96T88 whole entry): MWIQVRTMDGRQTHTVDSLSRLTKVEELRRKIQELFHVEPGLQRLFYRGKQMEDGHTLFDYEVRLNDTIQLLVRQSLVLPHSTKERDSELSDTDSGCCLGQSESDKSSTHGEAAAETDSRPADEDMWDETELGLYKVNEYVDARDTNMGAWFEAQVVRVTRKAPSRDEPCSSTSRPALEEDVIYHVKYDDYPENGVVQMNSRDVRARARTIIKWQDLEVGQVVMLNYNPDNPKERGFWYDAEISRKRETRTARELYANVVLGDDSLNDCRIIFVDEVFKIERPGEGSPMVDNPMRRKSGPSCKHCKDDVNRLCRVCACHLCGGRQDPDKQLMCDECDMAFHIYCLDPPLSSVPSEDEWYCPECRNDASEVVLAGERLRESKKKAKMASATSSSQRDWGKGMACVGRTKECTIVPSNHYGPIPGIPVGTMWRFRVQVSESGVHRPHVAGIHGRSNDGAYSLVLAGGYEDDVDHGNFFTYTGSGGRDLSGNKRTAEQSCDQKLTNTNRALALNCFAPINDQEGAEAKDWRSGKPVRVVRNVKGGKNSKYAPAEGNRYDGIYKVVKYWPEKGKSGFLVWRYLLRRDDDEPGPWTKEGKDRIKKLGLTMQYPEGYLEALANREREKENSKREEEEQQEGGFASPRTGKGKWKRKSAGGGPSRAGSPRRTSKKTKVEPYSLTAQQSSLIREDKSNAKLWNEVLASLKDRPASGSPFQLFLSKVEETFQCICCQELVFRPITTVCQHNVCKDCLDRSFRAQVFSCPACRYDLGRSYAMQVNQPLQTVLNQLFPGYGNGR
# TERT-RPE1 [13] = test: Cytotoxicity against human RPE-1 cells assessed as reduction in cell viability measured upto 200 uM by celltiterglo 2.0 assay; assay type: toxicity, cell-based; conditions: tert-rpe1, 200 µM
# M-phase phosphoprotein 8 = target: T5, M-phase phosphoprotein 8 (Homo sapiens, UniProt Q99549); test: Displacement of Biotin-p53K381acK382me2 from MPP8 chromodomain (unknown origin) by TR-FRET assay
# T5 sequence (Q99549 whole entry): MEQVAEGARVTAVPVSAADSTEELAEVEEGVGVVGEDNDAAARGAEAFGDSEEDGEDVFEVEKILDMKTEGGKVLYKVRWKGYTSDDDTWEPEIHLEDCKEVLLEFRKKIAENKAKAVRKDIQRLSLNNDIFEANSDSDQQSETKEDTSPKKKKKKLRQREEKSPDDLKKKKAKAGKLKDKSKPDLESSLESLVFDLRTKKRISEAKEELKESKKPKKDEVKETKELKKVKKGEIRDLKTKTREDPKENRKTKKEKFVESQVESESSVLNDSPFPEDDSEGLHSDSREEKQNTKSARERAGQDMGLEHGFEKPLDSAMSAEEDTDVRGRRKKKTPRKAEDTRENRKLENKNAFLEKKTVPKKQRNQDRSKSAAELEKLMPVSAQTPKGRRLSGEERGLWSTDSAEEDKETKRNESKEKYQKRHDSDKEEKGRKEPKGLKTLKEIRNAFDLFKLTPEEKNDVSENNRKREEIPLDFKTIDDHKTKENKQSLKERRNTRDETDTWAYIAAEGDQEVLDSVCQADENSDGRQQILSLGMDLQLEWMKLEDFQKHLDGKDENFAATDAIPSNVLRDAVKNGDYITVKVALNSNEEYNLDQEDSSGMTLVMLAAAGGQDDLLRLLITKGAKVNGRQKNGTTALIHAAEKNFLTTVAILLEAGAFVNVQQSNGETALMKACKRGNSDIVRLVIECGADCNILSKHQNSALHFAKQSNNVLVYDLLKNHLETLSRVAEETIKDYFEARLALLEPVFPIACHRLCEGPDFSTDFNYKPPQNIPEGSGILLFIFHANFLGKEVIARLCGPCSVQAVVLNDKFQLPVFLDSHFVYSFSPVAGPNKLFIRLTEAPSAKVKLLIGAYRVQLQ
# TERT-RPE1 [14] = test: Cytotoxicity against human RPE-1 cells assessed as reduction in cell viability by celltiterglo 2.0 assay; assay type: toxicity, cell-based
# HEK-293T [15] = test: Cytotoxicity against HEK293T cells assessed as reduction in cell viability by celltiterglo 2.0 assay; assay type: toxicity, cell-based; conditions: human
# T1 sequence (Q12888 whole entry, the tested form may be a part): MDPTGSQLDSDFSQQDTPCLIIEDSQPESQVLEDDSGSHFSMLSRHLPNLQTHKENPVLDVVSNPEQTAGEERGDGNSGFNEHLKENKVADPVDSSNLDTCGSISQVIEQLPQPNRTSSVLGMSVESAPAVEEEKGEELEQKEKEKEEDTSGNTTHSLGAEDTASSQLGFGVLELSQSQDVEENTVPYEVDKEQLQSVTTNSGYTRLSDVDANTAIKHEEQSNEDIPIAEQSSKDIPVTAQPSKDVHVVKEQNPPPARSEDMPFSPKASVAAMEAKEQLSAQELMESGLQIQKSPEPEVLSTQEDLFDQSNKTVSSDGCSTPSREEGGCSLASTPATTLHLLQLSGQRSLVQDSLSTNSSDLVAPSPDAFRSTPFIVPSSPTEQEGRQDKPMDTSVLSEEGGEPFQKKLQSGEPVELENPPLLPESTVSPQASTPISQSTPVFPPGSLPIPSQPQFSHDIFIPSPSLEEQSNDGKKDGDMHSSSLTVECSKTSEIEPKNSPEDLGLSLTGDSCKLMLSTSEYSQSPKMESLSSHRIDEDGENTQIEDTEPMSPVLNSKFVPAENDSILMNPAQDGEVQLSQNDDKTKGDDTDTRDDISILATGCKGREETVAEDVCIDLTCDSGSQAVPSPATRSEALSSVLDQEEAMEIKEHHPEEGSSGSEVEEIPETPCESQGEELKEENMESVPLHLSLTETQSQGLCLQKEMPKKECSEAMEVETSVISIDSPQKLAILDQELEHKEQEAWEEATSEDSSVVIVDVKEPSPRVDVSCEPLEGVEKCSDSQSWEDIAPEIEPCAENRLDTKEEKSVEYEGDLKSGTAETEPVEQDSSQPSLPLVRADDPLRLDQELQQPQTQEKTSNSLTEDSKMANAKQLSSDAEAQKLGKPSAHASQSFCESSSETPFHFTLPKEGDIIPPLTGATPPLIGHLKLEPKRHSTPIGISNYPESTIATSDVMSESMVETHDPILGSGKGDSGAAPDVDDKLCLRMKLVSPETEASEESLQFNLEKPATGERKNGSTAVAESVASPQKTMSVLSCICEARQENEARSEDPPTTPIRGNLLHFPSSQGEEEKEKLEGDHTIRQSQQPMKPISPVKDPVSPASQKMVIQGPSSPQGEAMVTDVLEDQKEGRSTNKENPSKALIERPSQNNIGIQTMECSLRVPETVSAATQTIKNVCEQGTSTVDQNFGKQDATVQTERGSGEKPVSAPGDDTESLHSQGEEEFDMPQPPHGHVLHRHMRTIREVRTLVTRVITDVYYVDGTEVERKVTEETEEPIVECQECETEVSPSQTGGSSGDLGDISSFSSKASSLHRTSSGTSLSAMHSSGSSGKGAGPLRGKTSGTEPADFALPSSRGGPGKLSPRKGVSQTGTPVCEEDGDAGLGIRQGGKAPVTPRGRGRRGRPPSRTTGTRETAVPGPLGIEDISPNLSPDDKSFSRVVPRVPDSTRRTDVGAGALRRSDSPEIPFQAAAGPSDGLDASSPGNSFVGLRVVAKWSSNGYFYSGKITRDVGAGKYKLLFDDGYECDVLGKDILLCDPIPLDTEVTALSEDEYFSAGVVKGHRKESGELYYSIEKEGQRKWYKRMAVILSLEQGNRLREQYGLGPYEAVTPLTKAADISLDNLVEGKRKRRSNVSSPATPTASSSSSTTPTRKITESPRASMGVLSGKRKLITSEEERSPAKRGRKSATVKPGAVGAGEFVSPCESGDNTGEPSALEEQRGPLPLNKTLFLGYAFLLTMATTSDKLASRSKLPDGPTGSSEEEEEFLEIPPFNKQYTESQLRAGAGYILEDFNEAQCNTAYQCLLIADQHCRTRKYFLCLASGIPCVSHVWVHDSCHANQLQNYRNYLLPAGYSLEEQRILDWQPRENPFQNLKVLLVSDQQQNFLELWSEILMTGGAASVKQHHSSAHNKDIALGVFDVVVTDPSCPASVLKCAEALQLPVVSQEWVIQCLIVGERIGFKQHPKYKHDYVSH
Compound,IC50 (TP53-binding protein 1 [1]) [µM],IC50 [2] [µM],deltaH (TP53-binding protein 1 [3]) [kcal/mol],IC50 (PHD finger protein 19) [µM],IC50 [4] [µM],Kd (TP53-binding protein 1 [5]) [µM],IC50 [6] [µM],Kd (TP53-binding protein 1 [7]) [µM],Kinetic_solubility [8] [µM],IC50 [9] [µM],Activity (HEK-293T [10]),IC50 (TP53-binding protein 1 [11]) [µM],IC50 [12] [µM],Activity (TERT-RPE1 [13]),IC50 (M-phase phosphoprotein 8) [µM],Activity (TERT-RPE1 [14]),Activity (HEK-293T [15])
CN1CCN(c2ccnc(C(=O)N3CCC[C@H](C(=O)Nc4cccc(-c5ccc(C(N)=O)cc5)c4)C3)c2)CC1,0.47,> 100,-9.2,> 100,> 100,0.79,> 100,0.85,194,> 100,Non-Toxic,8.5,> 100,Non-Toxic,> 100,,
CN1CCN(c2ccnc(C(=O)N3CCC[C@H](C(=O)Nc4cccc(-c5ccc6c(c5)C(=O)NC6)c4)C3)c2)CC1,0.46,> 100,-5.8,> 100,> 100,0.17,> 100,0.41,200,> 100,Non-Toxic,6.9,> 100,Non-Toxic,> 100,,
O=C1NCc2ccc(-c3cccc(NC(=O)[C@H]4CCCN(C(=O)c5cc(N6CCCCC6)ccn5)C4)c3)cc21,,,,,,,,,,,,,,,,Toxic,Toxic
